Measurements reported in ChEMBL document CHEMBL1201862, “PubChem BioAssay data set” (2004).
Active and inactive are the calls of the source.

What was measured:
[1] = target: Luciferin 4-monooxygenase (Photinus pyralis, UniProt P08659); experiment: Counter Screen for Luciferase-based Assay Positives. [Related pubchem assays: 620, 618, 411 ]
[2] = tested on: HT-1080; experiment: cytotoxicity in HT1080 fibrosarcoma cells, cell-based, fluorescence readout (AID 620); type: functional; details: Homo sapiens
[3] = target: T1, E3 ubiquitin-protein ligase XIAP (Homo sapiens, UniProt P98170); experiment: XIAP antagonists, biochemical, IAP family, fluorescence polarization (AID 1018); type: functional
[4] = target: T1, E3 ubiquitin-protein ligase XIAP; experiment: Counter Screen using XIAP-Bir3 for Chemical Antagonists of Bir1/2 domains of IAP-family anti-apoptotic proteins. [Related pubchem assays (depositor defined):AID1018, AID1449, AID1514, AID1638, AID1749, AID1750, AID488957, AID488963]
[5] = target: Epstein-Barr nuclear antigen 1 (Epstein-Barr virus (strain B95-8) (HHV-4) (Human herpesvirus 4), UniProt P03211); experiment: EBNA-1 inhibitors, dose response, biochemical, fluorescence polarization, 1536-well (AID 2381); set-up: species or system human gammaherpesvirus 4;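 further: fluorescence polarization of a Cy5 DNA probe bound by EBNA-1 protein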
[6] = target: Lytic switch protein BZLF1 (Epstein-Barr virus (strain B95-8) (HHV-4) (Human herpesvirus 4), UniProt P03206); experiment: EBV ZTA inhibitors, dose response, counter-screen for EBNA-1 inhibitor project, biochemical, fluorescence polarization, Epstein-Barr virus, 1536-well (AID 2377); set-up: species or system human gammaherpesvirus 4;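 further: fluorescence polarization of Cy5-labelled ZRE DNA probe bound by purified Zta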
[7] = target: Sphingosine 1-phosphate receptor 3 (Homo sapiens, UniProt Q99500); experiment: Dose response cell-based high throughput screening assay for antagonists of the Sphingosine 1-Phosphate Receptor 3 (S1P3). [Related pubchem assays: 1429, 485 ]; type: functional
[8] = target: 5-hydroxytryptamine receptor 1E (Homo sapiens, UniProt P28566); experiment: Counterscreen assay for S1P3 antagonists: Dose response cell-based high throughput screening assay to identify antagonists of the 5-Hydroxytryptamine Receptor Subtype 1E (5HT1E). [Related pubchem assays: 1429, 485 ]; type: functional
[9] = target: T2, Heat shock 70 kDa protein 1A (Homo sapiens, UniProt P0DMV8); experiment: Hsp70 inhibitors, probe displacement, primary screen, biochemical, fluorescence polarization (AID 583)
[10] = target: T2, Heat shock 70 kDa protein 1A; experiment: Hsp70 inhibitors, biochemical, TR-FRET (AID 786)
[11] = target: T3, Bcl-2-related protein A1 (Mus musculus, UniProt Q07440); experiment: Bfl-1 binding inhibitors, SAR follow-up, biochemical, fluorescence polarization (AID 1070)
T3 sequence (Q07440 whole entry): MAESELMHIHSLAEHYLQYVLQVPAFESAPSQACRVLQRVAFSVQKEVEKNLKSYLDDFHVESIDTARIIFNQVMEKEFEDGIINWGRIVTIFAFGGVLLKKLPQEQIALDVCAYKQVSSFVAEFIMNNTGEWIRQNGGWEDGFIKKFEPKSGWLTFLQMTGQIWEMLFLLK

[12] = target: T3, Bcl-2-related protein A1; experiment: Bfl-1 inhibitors blocking BH3 peptide binding, confirmation, biochemical, TR-FRET, mouse Bfl-1 (AID 621);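 further: TR-FRET binding of GST-Bfl-1 to FITC-labelled Bid peptide via terbium antibody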
[13] = target: Glyceraldehyde-3-phosphate dehydrogenase (Homo sapiens, UniProt P04406)
[14] = target: Genome polyprotein (dengue virus type 2, UniProt P29990); experiment: Dengue-2 NS5 methyltransferase inhibitors, primary screen, biochemical, confirmation dose response (AID 588689); type: functional
[15] = target: T4, Protein RecA (Mycobacterium tuberculosis, UniProt P9WHJ3); experiment: Fluorescence Cell-Free Homogeneous Dose Retest to Identify Inhibitors of RecA-Intein Splicing Activity. [Related pubchem assays (depositor defined):AID2097, AID2223, AID489010, AID492950]; type: functional
T4 sequence (P9WHJ3 whole entry): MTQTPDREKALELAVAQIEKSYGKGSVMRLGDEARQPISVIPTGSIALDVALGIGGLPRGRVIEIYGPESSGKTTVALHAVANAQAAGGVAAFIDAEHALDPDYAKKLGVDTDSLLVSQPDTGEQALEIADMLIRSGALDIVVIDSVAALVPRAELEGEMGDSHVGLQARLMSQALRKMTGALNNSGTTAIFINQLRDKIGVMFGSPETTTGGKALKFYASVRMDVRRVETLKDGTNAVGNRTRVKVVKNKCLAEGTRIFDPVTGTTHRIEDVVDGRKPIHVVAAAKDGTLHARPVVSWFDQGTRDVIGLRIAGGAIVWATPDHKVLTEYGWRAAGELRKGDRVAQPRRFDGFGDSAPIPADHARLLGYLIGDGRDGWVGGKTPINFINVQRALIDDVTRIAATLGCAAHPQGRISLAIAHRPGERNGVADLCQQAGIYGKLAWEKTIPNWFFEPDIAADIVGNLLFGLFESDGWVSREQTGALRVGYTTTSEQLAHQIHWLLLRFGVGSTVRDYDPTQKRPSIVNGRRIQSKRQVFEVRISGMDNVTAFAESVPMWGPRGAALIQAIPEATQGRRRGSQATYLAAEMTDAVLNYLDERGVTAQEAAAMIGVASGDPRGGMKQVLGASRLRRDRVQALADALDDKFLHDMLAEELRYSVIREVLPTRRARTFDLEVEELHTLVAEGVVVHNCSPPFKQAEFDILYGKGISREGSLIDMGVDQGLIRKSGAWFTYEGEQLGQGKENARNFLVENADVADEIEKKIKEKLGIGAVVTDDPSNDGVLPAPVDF

[16] = tested on: Vero; experiment: Vero cell cytotoxicity, cytotoxicity control for flavivirus capping enzyme inhibitors (AID 588742); type: functional; details: Chlorocebus sabaeus
[17] = target: T5, Replicative DNA helicase DnaB (Mycobacterium tuberculosis, UniProt P9WMR3); experiment: DnaB intein splicing inhibitors, dose response, biochemical, cell-free fluorescence (AID 449749); type: functional
T5 sequence (P9WMR3 whole entry): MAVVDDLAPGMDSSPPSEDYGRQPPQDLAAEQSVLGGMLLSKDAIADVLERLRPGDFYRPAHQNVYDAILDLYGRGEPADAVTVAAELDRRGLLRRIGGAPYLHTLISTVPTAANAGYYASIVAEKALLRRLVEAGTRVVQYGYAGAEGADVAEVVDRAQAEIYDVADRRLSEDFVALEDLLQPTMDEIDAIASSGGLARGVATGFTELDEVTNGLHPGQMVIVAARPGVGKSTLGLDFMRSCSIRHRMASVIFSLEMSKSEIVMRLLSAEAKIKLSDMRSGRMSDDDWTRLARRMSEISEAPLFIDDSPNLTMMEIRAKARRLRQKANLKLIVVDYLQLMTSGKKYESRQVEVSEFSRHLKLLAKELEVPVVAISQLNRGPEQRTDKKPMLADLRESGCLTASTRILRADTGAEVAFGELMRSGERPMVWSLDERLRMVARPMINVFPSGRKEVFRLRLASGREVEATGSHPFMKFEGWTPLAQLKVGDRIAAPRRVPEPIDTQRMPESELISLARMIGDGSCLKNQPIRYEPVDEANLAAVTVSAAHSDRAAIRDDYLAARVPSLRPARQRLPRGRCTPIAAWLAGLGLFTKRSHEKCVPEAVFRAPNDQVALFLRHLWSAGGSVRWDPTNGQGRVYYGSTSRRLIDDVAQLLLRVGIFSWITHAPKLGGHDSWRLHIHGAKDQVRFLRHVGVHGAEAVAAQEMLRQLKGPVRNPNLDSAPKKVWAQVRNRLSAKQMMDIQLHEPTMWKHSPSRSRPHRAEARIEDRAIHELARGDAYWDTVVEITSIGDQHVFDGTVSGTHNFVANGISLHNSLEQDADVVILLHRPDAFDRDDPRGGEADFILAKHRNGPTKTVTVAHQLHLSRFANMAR

[18] = tested on: Vero; experiment: host cell cytotoxicity of antiviral hits, dose response, cytotoxicity control for West Nile virus antiviral project, secondary assay (AID 1650); type: functional; details: Chlorocebus sabaeus
[19] = tested on: Vero; experiment: cells; type: functional, cell-based; details: Chlorocebus sabaeus
[20] = Luminescence Cell-Based Dose Retest to Confirm Inhibitors of Cancer Stem Cells. [Related pubchem assays (depositor defined):AID2717, AID2721]; type: functional; details: Homo sapiens
[21] = target: T6, Heat shock factor protein 1 (Mus musculus, UniProt P38532); experiment: HSF1 potentiators in luciferase reporter cells, confirmation, cell-based, NIH3T3, luminescence, dose retest (AID 435004); type: functional;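 further: stress induced by proteasome inhibitor MG132 added 30 min after compound; luciferase reporter driven by HSF1 response element in NIH3T3 cells; actives raise luminescence as potentiators of the MG132 stress response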
T6 sequence (P38532 whole entry): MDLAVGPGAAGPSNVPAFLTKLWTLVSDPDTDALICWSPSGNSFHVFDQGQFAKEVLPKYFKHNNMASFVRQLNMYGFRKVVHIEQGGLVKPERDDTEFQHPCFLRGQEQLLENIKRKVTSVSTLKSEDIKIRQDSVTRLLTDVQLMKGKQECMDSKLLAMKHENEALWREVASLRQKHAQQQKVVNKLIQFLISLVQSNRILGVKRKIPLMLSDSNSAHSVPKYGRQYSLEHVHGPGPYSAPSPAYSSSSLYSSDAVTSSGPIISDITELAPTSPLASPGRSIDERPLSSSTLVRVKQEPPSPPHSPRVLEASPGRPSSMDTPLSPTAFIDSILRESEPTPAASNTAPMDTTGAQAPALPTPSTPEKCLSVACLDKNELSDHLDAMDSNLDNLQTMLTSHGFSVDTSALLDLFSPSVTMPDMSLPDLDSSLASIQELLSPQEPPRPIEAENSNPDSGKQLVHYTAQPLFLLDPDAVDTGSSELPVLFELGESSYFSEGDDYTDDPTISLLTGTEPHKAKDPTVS

[22] = Luminescent dose response cell-based high throughput screening assay for inhibitors of the Janus kinase 2 mutant JAK2V617F. [Related pubchem assays: 1446 (Primary screen.), 1521 (Confirmation assay.), 1486 (Counter screen.)]; type: functional
[23] = tested on: Vero; experiment: cells; type: functional; details: Chlorocebus sabaeus

T2 sequence (P0DMV8 whole entry): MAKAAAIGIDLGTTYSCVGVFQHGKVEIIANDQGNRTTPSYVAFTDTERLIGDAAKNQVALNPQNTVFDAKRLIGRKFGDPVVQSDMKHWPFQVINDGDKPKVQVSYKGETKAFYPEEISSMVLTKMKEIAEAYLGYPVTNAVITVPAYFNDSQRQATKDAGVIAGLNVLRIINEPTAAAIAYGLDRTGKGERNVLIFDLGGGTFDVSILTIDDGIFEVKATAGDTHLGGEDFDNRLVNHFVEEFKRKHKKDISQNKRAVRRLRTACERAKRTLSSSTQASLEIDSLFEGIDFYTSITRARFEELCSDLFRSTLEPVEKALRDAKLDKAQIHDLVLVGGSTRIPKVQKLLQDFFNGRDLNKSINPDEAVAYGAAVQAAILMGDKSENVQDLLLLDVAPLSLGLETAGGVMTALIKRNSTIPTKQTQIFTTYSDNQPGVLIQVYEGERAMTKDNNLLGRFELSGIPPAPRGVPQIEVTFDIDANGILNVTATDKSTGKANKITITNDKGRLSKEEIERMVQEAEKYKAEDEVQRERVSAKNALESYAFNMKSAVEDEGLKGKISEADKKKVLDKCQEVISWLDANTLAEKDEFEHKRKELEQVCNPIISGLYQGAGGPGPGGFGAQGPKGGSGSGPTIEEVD
T1 sequence (P98170 whole entry): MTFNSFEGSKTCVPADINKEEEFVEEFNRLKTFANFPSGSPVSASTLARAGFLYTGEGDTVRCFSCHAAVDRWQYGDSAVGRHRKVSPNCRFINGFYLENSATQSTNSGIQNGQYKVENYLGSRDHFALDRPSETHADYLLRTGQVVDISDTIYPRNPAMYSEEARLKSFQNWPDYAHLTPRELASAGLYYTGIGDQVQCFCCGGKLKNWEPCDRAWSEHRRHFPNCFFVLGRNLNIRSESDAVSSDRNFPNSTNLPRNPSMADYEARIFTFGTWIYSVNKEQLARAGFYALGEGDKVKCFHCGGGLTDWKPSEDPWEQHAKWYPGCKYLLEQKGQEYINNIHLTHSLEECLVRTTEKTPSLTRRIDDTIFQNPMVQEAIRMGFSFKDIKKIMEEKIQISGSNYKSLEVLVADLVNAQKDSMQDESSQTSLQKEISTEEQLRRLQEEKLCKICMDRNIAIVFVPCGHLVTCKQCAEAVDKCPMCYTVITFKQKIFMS
Luciferin 4-monooxygenase, sequence (P08659 whole entry): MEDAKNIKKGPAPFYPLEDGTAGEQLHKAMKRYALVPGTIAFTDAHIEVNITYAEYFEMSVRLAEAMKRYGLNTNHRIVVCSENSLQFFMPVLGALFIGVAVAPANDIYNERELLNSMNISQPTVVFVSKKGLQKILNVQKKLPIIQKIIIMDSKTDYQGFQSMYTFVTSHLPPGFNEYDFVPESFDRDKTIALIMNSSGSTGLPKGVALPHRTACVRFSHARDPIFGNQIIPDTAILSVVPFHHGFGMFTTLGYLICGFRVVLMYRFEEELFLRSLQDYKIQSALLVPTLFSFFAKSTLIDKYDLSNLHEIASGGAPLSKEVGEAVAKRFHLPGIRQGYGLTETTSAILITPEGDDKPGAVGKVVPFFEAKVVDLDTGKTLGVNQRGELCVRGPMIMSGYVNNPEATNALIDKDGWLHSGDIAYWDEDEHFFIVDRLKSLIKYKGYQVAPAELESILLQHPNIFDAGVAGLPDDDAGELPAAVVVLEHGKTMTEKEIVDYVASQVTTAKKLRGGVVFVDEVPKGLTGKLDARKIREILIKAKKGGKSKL
5-hydroxytryptamine receptor 1E, sequence (P28566 whole entry): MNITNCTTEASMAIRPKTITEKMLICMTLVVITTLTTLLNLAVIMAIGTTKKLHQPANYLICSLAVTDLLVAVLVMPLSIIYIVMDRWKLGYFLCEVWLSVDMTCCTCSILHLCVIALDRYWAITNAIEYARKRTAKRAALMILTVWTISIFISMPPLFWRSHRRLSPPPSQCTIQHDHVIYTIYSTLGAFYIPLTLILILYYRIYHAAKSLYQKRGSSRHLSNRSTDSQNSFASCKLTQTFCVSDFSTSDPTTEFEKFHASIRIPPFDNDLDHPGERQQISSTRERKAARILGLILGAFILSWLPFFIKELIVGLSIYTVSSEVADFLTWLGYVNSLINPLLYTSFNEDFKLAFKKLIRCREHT
Sphingosine 1-phosphate receptor 3, sequence (Q99500 whole entry): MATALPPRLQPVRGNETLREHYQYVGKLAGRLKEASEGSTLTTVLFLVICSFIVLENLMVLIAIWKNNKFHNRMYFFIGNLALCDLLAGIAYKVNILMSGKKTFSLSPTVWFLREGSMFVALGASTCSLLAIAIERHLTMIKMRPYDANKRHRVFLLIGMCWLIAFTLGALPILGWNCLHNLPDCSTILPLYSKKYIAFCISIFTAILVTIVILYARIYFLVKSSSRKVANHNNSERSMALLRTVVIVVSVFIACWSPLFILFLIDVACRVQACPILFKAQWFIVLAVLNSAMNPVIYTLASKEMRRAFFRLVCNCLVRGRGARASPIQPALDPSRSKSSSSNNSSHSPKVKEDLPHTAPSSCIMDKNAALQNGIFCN
Genome polyprotein, sequence (P29990 2492-3391 limits assumed): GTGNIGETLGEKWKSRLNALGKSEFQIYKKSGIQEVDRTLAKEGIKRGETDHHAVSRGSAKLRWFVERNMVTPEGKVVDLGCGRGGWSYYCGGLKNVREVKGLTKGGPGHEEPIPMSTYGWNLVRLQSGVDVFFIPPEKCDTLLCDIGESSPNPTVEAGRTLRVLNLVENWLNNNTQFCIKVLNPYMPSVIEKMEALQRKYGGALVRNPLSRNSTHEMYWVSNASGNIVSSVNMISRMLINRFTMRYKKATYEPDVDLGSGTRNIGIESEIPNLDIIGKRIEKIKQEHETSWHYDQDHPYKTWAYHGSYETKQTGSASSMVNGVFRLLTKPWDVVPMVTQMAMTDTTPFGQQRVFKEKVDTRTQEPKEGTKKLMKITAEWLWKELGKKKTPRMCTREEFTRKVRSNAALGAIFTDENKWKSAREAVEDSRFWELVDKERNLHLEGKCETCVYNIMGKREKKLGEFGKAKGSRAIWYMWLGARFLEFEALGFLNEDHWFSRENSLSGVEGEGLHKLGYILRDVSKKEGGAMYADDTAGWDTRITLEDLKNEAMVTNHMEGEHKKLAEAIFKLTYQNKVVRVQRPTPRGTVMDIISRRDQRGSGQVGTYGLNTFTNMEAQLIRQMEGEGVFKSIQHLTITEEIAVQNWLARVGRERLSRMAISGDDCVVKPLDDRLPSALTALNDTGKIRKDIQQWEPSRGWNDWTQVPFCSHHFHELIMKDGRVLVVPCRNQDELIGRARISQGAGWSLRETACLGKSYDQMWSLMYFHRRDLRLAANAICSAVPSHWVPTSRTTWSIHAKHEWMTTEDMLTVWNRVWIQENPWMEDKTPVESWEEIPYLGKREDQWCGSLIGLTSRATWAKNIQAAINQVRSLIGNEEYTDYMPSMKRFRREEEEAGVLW
Epstein-Barr nuclear antigen 1, sequence (P03211 whole entry): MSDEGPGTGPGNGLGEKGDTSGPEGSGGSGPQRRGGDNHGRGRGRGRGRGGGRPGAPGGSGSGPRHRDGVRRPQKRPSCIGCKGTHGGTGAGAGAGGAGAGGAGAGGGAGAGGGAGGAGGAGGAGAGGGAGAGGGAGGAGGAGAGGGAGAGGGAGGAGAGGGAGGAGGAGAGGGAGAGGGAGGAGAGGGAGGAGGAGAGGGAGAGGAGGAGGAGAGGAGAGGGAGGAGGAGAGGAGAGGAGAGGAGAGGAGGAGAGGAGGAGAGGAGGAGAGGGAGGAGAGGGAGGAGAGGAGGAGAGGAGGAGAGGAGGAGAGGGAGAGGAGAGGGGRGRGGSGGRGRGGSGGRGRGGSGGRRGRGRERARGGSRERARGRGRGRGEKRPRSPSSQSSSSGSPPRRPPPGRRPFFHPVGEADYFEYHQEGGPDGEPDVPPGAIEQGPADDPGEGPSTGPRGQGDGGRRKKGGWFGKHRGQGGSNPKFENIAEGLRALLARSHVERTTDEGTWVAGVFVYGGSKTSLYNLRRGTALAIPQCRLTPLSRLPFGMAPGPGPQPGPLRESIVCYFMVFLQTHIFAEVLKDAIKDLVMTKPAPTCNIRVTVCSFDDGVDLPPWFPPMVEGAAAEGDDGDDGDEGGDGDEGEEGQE
Glyceraldehyde-3-phosphate dehydrogenase, sequence (P04406 whole entry): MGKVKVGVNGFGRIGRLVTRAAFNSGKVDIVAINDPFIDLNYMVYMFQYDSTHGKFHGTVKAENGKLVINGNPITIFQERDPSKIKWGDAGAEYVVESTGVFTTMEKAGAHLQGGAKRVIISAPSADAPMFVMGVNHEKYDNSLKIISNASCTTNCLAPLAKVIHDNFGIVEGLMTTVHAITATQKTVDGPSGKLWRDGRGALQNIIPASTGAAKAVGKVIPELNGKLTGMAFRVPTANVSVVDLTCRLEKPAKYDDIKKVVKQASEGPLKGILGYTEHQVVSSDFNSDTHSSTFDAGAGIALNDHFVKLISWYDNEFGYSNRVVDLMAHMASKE
Lytic switch protein BZLF1, sequence (P03206 whole entry): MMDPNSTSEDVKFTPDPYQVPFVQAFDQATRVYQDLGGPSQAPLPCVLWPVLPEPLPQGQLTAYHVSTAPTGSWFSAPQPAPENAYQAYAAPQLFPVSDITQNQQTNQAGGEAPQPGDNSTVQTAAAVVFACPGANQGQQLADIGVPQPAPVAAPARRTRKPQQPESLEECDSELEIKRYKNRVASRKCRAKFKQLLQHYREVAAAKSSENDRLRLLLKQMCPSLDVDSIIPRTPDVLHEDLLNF

Nc1ccc2oc(-c3ccc4[nH]cnc4c3)nc2c1
EC50 [1]: 11.2 µM (active) | EC50 [2]: > 50 µM (not active)

O=c1c2ccccc2nnn1CSc1nnc(-c2cccs2)n1Cc1ccccc1
IC50 [3]: > 100 µM (not active) | IC50 [4]: > 100 µM (inactive)

O=C(Nc1ccc(Oc2ccc3c(c2)C(=O)N(c2ccc(O)cc2)C3=O)cc1)c1cccs1
IC50 [5]: 15.1 µM (not active) | IC50 [6]: > 111 µM (not active)

CC1CCCCN1C(=O)Cn1cc(C(=O)c2ccco2)c2ccccc21 (stereo not drawn)
IC50 [7]: > 50 µM (not active) | IC50 [8]: > 50 µM (not active)

Cc1c(NC(=O)Nc2ccc(Cl)cc2)c(=O)n(-c2ccccc2)n1C
IC50 [9]: > 100 µM (not active) | IC50 [10]: > 100 µM (not active)

O=C1C(Cl)=C(Cl)C(=O)N1c1cccc(Cl)c1Cl
IC50 [11]: 0.979 µM (active) | IC50 [12]: 0.5 µM (active) | IC50 [13]: > 100 µM (not active)

Cc1ccc(NC(=O)C(=Cc2ccc(C(=O)O)cc2)C(=O)Nc2ccc(C)cc2C)c(C)c1
IC50 [14]: > 100 µM (active) | EC50 [15]: 3.21 µM (active) | CC50 [16]: 27.3 µM (active) | AC50 [17]: 2.51 µM (active) | CC50 [18]: 7.51 µM (active) | IC50 [19]: 19.6 µM (active) | AC50 [20]: 1.9 µM (active) | EC50 [21]: 6.71 µM (active) | IC50 [22]: 1.95 µM (active) | CC50 [23]: 9.83 µM (active)
